Experiments:
monocytes = experiment: Luminol-enhanced chemiluminescence (respiratory burst) of elutriated monocytes; assay type: cell-based, human
Procedure: Formylmethionyl-leucyl-phenylalanine was dissolved to 10^−2 M in dimethyl sulfoxide and subsequently diluted in Krebs-Ringer phosphate buffer supplemented with glucose (10 mM), Ca^2+ (1 mM), and Mg^2+ (1.5 mM).
In a second set of experiments, effects of histamine and H2R-interactive compounds on the respiratory burst activity, as measured by the luminol-enhanced CL response of enriched, elutriated monocytes, were studied. Monocytes were treated with culture medium (control), histamine (10^−5 M), sodium azide (10^−5 M), or histamine and sodium azide as described below. Emission of CL was recorded after addition of fMLP at time=0.
To assess whether histamine acted by inhibiting the generation of H2O2 or by reducing the availability of peroxidase, we next studied the effects of histamine in monocytes treated with sodium azide to inhibit endogenous myeloperoxidase (MPO) and with exogenous, azide-insensitive peroxidase (HRP) in excess.
To exclude non-specific effects of ranitidine, we used a ranitidine analog (AH20239AA; […]; Glaxo) in which the thioether of ranitidine is replaced by an ether, thereby strongly reducing its H2R antagonist properties. In these experiments, monocytes were treated with histamine (10^−5 M) together with ranitidine or AH20239AA at final concentrations indicated in FIG. 7. All cells were treated with fMLP at time=0. Peak CL recorded in untreated monocytes (control) was 2.5×10^7 cpm.

[1] = test system: NK cells (cytotoxicity against K562 target cells); experiment: cells; details: for reversal of inhibition of NK cells induced by H2O2: catalase 20 U/ml, data not shown; for time of addition at which the NK cell suppressive signal is inhibited: histamine 10^−4 M or catalase 20 U/ml added at time points after assay start; for effect on NK-cell-mediated killing of tumor cells in the absence of monocytes: no monocytes, NK cells unactivated or IL-2 activated
Procedure: Using blood obtained from a healthy human blood donor, we studied the effects of catalase on NK cell-mediated killing of tumor cells. K562 cells, from an NK sensitive erythroleukemic cell line, were used as target cells in all experiments. Washed cells (10×10^6 cells/ml) were incubated with ^51Cr (Amersham) at a concentration of 150 FCi/ml cell suspension for 2-4 hours. After centrifugation and resuspension in cell culture medium, 10^4 cells in 50 FL portions were added to the effector cells in microplate wells.
In the first set of experiments, human NK cells alone (1.5×10^5 cells/well) were added to the K562 target cells. […] The cells were then exposed to catalase (Boehringer-Mannheim) at concentrations of 0 to 100 U/ml. These same conditions were repeated using human NK cells admixed with 30% human peripheral blood monocytes, recovered by centrifugal elutriation, added to the target K562 cells.
After incubation at 37EC for 16 hours, supernatant fluids were collected by a tissue collecting system (Amersham) and assayed for radioactivity in a gamma counter. Maximum ^51Cr release was determined in target cell cultures treated with Triton-X. NK cell cytotoxicity was calculated as cell lysis % according to the following formula: [formula]
To study the relationship between the monocyte-derived inhibitory signal and the respiratory burst activity of monocytes, we added catalase and various other scavengers of reactive oxygen metabolites to NK cells, alone or admixed with monocytes. We then measured the cytotoxicity of the NK cells against NK cell sensitive K562 target cells as described above.
Cell culture medium (control), histamine (10^−4 M), or catalase (20 U/ml), was added to either enriched NK cells alone or a mixture of NK cells and monocytes (1.5×10^5 cells/well). These mixtures were then incubated with K562 target cells in sextuplicate in microplates in a total volume of 200 Fl and assayed for microcytotoxicity.
Culture medium (control) or H2O2 at concentrations between 0-10 FM was added to NK cell enriched lymphocytes for assay of cytotoxicity against ^51Cr K562 target cells as described above.
MPO (100 U/ml) and H2O2 at concentrations between 0-10 FM were added to NK cell enriched lymphocytes for assay of cytotoxicity against ^51Cr K562 target cells as described above.
A mixture of enriched NK cells and monocytes were treated with culture medium (control), histamine (10^−4 M), or catalase (20 U/ml) and assayed for microcytotoxicity against target K562 cells as described above in connection with Example 1. […] The data shown is cell lysis % ±s.e.m. of sextuplicates.

[2] = test system: NK cells (cytotoxicity against K562 target cells)
Procedure: In additional experiments, NK cell enriched lymphocytes were pretreated in petri dishes with culture medium (control), catalase or histamine, in the concentrations indicated below in Table II, in the presence or absence of monocytes. After 1 hour incubation, nonadherent lymphocytes were recovered, washed twice, and assayed for cytotoxicity as described above. We wished to determine whether the NK cell inhibitory signal was reversible by removal of monocytes and removal of monocyte-derived products. […] Data are cell lysis % ±s.e.m. of sextuplicates and are the results of 2 separate experiments.

RBC = test system: RBC
Procedure: (§1) Further, we used an assay system in which lysis of elutriated , ^51Cr -labelled RBC was measured in microplates.

NK cells = experiment: IL-2-induced NK cell proliferation (3H-methyl-thymidine incorporation); assay type: cell-based, human; details: histamine 10^−4 M or catalase 20 U/ml, IL-2 50 U/ml, 48 hours
Procedure: During the last 8 hours of incubation, cells were pulsed with ^3H-methyl-thymidine (specific activity […]; New England Nuclear Corp.; 1 FCi/2×10^5 cells). Following incubation, the cells were collected on glass fiber filters with an automatic cell harvester and cell-incorporated ^3H-methyl-thymidine was estimated by liquid scintillography.

[3] = histamine 10^−4 M, cell free
Procedure: The reaction mixture contained 0.8 ml elutriated monocytes (5×10^6 cells/ml).
as §1

[4] = test system: YAC-1 mouse lymphoma cells; experiment: NK cell-mediated clearance of 51Cr-labeled YAC-1 lymphoma cells from lungs in vivo; parameters: species or system Swiss Albino mice; details: 100 U/kg intravenously, 2 hours, four experiments
Procedure: FIG. 2 graphically depicts the activation of NK cell-mediated clearance of YAC-1 lymphoma cells in vivo by catalase. Seventy-five thousand YAC-1 cells labeled with ^51Cr were injected intravenously into male or female 4-6-week-old Swiss Albino mice, together with vehicle (control; open bars) or catalase (100 U/kg; filled bars). Two hours after the inoculation of tumor cells, the mice were sacrificed by cervical dislocation. […] Results from 4 separate experiments are shown. Each bar represents the mean “s.e.m. of 3-5 animals.
Seventy-five thousand ^51Cr-labeled, NK cell-sensitive YAC-1 mouse lymphoma cells were injected intravenously into male or female 4 to 6 week old Swiss Albino mice, together with vehicle (control) or 100 U/kg catalase. Two hours after inoculation with the tumor cells, the mice were sacrificed by cervical dislocation. The lungs were removed and placed in test tubes in a gamma-counter, and the radioactivity in the lung tissue was measured. The radioactivity in lung tissue is an inverse measure of NK cell-mediated killing of tumor cells in vivo (see Hanna et al., JNCI 65:801 (1980)), and is expressed as a percent of the ^51Cr that is retained in lungs immediately after inoculation of radiolabeled tumor cells.

Q: Which results are given for CNC(=C[N+](=O)[O-])NCCOCc1ccc(CN(C)C)o1 [AH20239AA]?
A: potency relative to ranitidine in antagonizing inhibition of respiratory burst activity by histamine (fold less potent) (monocytes; histamine 10^−5 M): more than 100 fold; potency relative to ranitidine in antagonizing effects of histamine on suppression of NK cell function by monocytes (fold less potent) [1]: more than 100 fold

Q: For CN(C)CCCSC(=N)N [Dimaprit], which “effect on the respiratory burst of monocytes (H2R-interactive compounds)” value (monocytes) is on record?
A: Its value is “mimicked the effect of histamine”.

Q: And the “incubation time until effect on respiratory burst is maximal” value (monocytes; data not shown)?
A: Its value is 10 to 15 min.

Q: Which “inhibition of NK cell cytotoxicity after pretreatment and washing” value [2] does the source give for OO [H2O2, hydrogen peroxide] here?
A: The value was “sufficient to effectively inhibit”.

Q: What about the “effect on cytotoxicity of enriched NK cells” value [1] of the same molecule?
A: The value was “effectively suppressed”.

Q: What about the EC50 ([1]; Homo sapiens, K562, read-out: ED50 of suppression of NK cell cytotoxicity) of the same molecule?
A: The EC50 was ~2000 nM.

Q: What about the “lysis of RBC” value (RBC; H2O2 5×10^−5 M, 10^5 RBC) of the same molecule?
A: The value was “approximately 50%”.

Q: For CC(=O)N(O)CCCCCNC(=O)CCC(=O)N(O)CCCCCNC(=O)CCC(=O)N(O)CCCCCN [deferox, deferoxamine], which “effect on monocyte-induced inhibition of baseline NK cell cytotoxicity” value (“effect on monocyte-induced inhibition” for short) [1] is on record?
A: The value was “ineffective”.

Q: With NCCc1c[nH]cn1 [histamine] as the molecule, how does the “time to block respiratory burst activity” value (monocytes; data not shown) read?
A: The value was “within seconds”.

Q: What about the “effect on burst activity of unstimulated monocytes and induction of burst by fMLP” value (monocytes; histamine 10^−5 M) of the same molecule?
A: The value was “effectively inhibited”.

Q: What about the “effect on fMLP induced CL response with sodium azide and exogenous HRP in excess” value (monocytes; sodium azide 10^−5 M, HRP) of the same molecule?
A: The value was “inhibited”.

Q: And the “reversal of monocyte-induced inhibition of IL-2-induced NK cell proliferation” value (NK cells)?
A: Its value is “effectively reverse”.

Q: What about the “effect on monocyte-induced inhibition” value [1] of the same molecule?
A: Its value is “abrogated”.

Q: What about the “concentration at which histamine abrogates monocyte induced suppression of NK cells” value ([1]; NK cells with monocytes) of the same molecule?
A: Its value is “exceeding 10^−7 M”.

Q: What about the “reversal of inhibition of NK cells induced by H2O2” value [1] of the same molecule?
A: The value was “not”.

Q: And the “effect of histamine on monocyte induced suppression of NK cells in the presence of catalase” value ([1]; catalase present)?
A: Its value is “ineffective”.

Q: And the “time of addition at which the NK cell suppressive signal is inhibited” value [1]?
A: The value was “within the first hour”.

Q: And the “CL recorded with H2O2 and/or MPO or H2O2 and HRP” value [3]?
A: The value was “unchanged”.

Q: And the “effect on level of RBC killing induced by H2O2” value (RBC; histamine 10^−4 M)?
A: The value was “did not alter”.

Q: Which “effect on monocyte-induced inhibition” value [1] does the source give for OC[C@@H](O)[C@@H](O)[C@H](O)[C@H](O)CO [mannitol] here?
A: Its value is “ineffective”.

Q: With CN(C)CCSC(=N)N [nor-dimaprit] as the molecule, how does the “effect on the respiratory burst of monocytes (H2R-interactive compounds)” value (monocytes) read?
A: The value was “ineffective”.

Q: Which “effect on monocyte-induced inhibition” value [1] does the source give for NCCS(=O)(=O)O [taurin] here?
A: Its value is “ineffective”.

Q: Which “reversal of monocyte-induced inhibition of IL-2-induced NK cell proliferation” value (NK cells) does the source give for catalase here?
A: The value was “effectively reverse”.

Q: What about the “effect on monocyte-induced inhibition” value [1] of the same molecule?
A: The value was “completely abrogate”.

Q: And the “concentration at which catalase reverses the monocyte suppressive signal” value ([1]; NK cells with monocytes)?
A: The value was “exceeding 10 U/ml”.

Q: What about the “concentration at which catalase reverses the monocyte suppressive signal” value ([1]; NK cells with monocytes, listed as Catalase) of the same molecule?
A: The value was “exceeding 5 U/ml”.

Q: And the “reversal of inhibition of NK cells induced by H2O2” value [1]?
A: The value was “completely reversed”.

Q: And the “time of addition at which the NK cell suppressive signal is inhibited” value [1]?
A: Its value is “within the first hour”.

Q: And the “effect on NK-cell-mediated killing of tumor cells in the absence of monocytes” value [1]?
A: Its value is “does not affect”.

Q: What about the “effect on NK-cell-mediated killing of tumor cells in the absence of monocytes” value ([1]; listed as Catalase) of the same molecule?
A: The value was “had no effect”.

Q: And the “NK cell-mediated killing of YAC-1 lymphoma cells in vivo (retained lung radioactivity)” value [4]?
A: The value was “augmented”.

Q: For superoxide dismutase [SOD], which “effect on monocyte-induced inhibition” value [1] is on record?
A: The value was “did not alter”.

B1: myeloperoxidase (protein, UniProt P05164 165-745, looked up)
Myeloperoxidase: VTCPEQDKYRTITGMCNNRRSPTLGASNRAFVRWLPAEYEDGFSLPYGWTPGVKRNGFPVALARAVSNEIVRFPTDQLTPDQERSLMFMQWGQLLDHDLDFTPEPAARASFVTGVNCETSCVQQPPCFPLKIPPNDPRIKNQADCIPFFRSCPACPGSNITIRNQINALTSFVDASMVYGSEEPLARNLRNMSNQLGLLAVNQRFQDNGRALLPFDNLHDDPCLLTNRSARIPCFLAGDTRSSEMPELTSMHTLLLREHNRLATELKSLNPRWDGERLYQEARKIVGAMVQIITYRDYLPLVLGPTAMRKYLPTYRSYNDSVDPRIANVFTNAFRYGHTLIQPFMFRLDNRYQPMEPNPRVPLSRVFFASWRVVLEGGIDPILRGLMATPAKLNRQNQIAVDEIRERLFEQVMRIGLDLPALNMQRSRDHGLPGYNAWRRFCGLPQPETVGQLGTVLRNLKLARKLMEQYGTPNNIDIWMGGVSEPLKRKGRVGPLLACIIGTQFRKLRDGDRFWWENEGVFSMQQRQALAQISLPRIICDNTGITTVSKNNIFMSNSYPRDFVNCSTLPALNLASWREAS
Q: With B1 as the molecule, how does the “potentiation of the suppressive effect of H2O2 on NK cells” value ([1]; MPO 100 U/ml with H2O2 0-10 FM) read?
A: The value was “did not potentiate”.

Q: What about the “scavenging of H2O2” value ([1]; MPO 100 U/ml with H2O2 0-10 FM) of the same molecule?
A: Its value is “slightly but significantly scavenged”.
